Data as given in US20230203081A1, “LINCOSAMIDE ANTIBIOTICS AND USES THEREOF” (President and Fellows of Harvard College, priority 2020, published 2023).
Values after ≈ are worked out from the molar mass of the structure shown.

Tests used:
Format in all cases: cell-based
A. baumannii ATCC 19606 = assay: MIC (broth microdilution or agar dilution, CLSI); details: Acinetobacter baumannii, ATCC19606; A. baumannii ATCC 19606; read-out: MIC
How it was run: (§1)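 Isolates other than streptococci and anaerobes, which had their own procedures, were grown overnight at 35° C on tryptic soy agar with 5% sheep blood. Suspensions were then diluted to a final inoculum of 5×10^5 CFU/mL in broth microdilution wells.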

[1] = system: S. pneumoniae MMX 3031 cMefA; assay: MIC (broth microdilution or agar dilution, CLSI); details: Streptococcus pneumoniae, MMX3031CMEFA, S. pneumoniae MMX 3031 cMefA; read-out: MIC
How it was run: as §1

[2] = system: E. faecalis MMX 847; cErmB; assay: MIC (broth microdilution or agar dilution, CLSI); details: Enterococcus faecalis; E. faecalis MMX 847; cErmB; read-out: MIC
How it was run: as §1

S. aureus hVISA = assay: MIC (broth microdilution or agar dilution, CLSI); details: Staphylococcus aureus; S. aureus hVISA; read-out: MIC
How it was run: as §1

[3] = system: S. aureus ATCC BAA-1707 (MRSA); assay: MIC (broth microdilution or agar dilution, CLSI); details: Staphylococcus aureus; S. aureus ATCC BAA-1707 (MRSA); read-out: MIC
How it was run: as §1

S. pneumoniae ATCC 6303 = assay: MIC (broth microdilution or agar dilution, CLSI); details: Streptococcus pneumoniae, ATCC6303; S. pneumoniae ATCC 6303; read-out: MIC
How it was run: as §1

S. aureus ATCC 700699 = assay: MIC (broth microdilution or agar dilution, CLSI); details: Staphylococcus aureus, ATCC700699; S. aureus ATCC 700699; read-out: MIC
How it was run: as §1

[4] = system: S. pneumoniae MMX 3028 cErmB; assay: MIC (broth microdilution or agar dilution, CLSI); details: Streptococcus pneumoniae, MMX3028CERMB; S. pneumoniae MMX 3028 cErmB; read-out: MIC
How it was run: as §1

[5] = system: S. pyogenes MMX 946; cErmB; assay: MIC (broth microdilution or agar dilution, CLSI); details: Streptococcus pyogenes; S. pyogenes MMX 946; cErmB; read-out: MIC
How it was run: as §1

E. coli armA = assay: microbe, parasite or virus in culture; details: Escherichia coli, E. coli armA
How it was run: as §1

E. faecalis VRE [6] = assay: MIC (CLSI), first E. faecalis VRE line of Table 4; details: Enterococcus faecalis; E. faecalis VRE (Table 4, first VRE line); read-out: MIC
Experimental: (§2) Minimum inhibitory concentrations (MICs) were determined by broth microdilution method or agar dilution method following the Clinical and Laboratory Standards Institute guidelines. Standard bacterial strains were obtained from American Type Culture Collection (ATCC). Other bacterial strains were obtained from hospitals and commercial sources, so noted in Table 11. Before the start of the MIC experiment, standard and test compound stock solutions were prepared in dimethyl sulfoxide (DMSO, Aldrich D2650) at a stock concentration of 5,120 μg/mL. The compound concentration range typically employed for each experiment was 128-0.06 μg/mL (2.5% final DMSO concentration). Clindamycin was used as a comparator in all experiments and each experiment was performed in triplicate. Specialized procedures were employed for streptococcal and anaerobic strains. All other bacterial strains were sub-cultured on blood agar plates (tryptic soy agar with 5% sheep blood, Hardy Diagnostics) and incubated overnight at 35° C. Organisms were suspended in cation-adjusted Mueller-Hinton broth (CaMHB, BD 212322) and optical density was adjusted to 0.5 McFarland standard. Suspensions were further diluted to obtain a final inoculum of 5×10^5 CFU/mL for broth microdilution experiments.

E. faecalis VRE [7] = assay: MIC (CLSI), second E. faecalis VRE line of Table 4; details: Enterococcus faecalis; E. faecalis VRE (Table 4, second VRE line); read-out: MIC
Experimental: as §2

E. faecalis VRE [8] = assay: MIC (CLSI), third E. faecalis VRE line of Table 4; details: Enterococcus faecalis; E. faecalis VRE (Table 4, third VRE line); read-out: MIC
Experimental: as §2

S. aureus MRSA = assay: MIC (broth microdilution or agar dilution, CLSI); details: Staphylococcus aureus
How it was run: (§3)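 Triplicate CLSI determinations by broth or agar dilution, compound at 128-0.06 μg/mL in 2.5% DMSO; special handling for anaerobes. Broth microdilution used 5×10^5 CFU/mL inocula in cation-adjusted Mueller-Hinton broth.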

E. faecium Line R & VRE = assay: MIC (broth microdilution or agar dilution, CLSI); details: Enterococcus faecium, E. faecium Line R & VRE, read-out: MIC
How it was run: as §3

P. aeruginosa ATCC 27853 = assay: MIC (broth microdilution or agar dilution, CLSI); details: Pseudomonas aeruginosa, ATCC27853; P. aeruginosa ATCC 27853; read-out: MIC
How it was run: as §3

P. aeruginosa ΔAmex OprM = assay: MIC (broth microdilution or agar dilution, CLSI); details: Pseudomonas aeruginosa
How it was run: as §3

E. faecium VRE = assay: MIC (broth microdilution or agar dilution, CLSI); details: Enterococcus faecium; E. faecium VRE; read-out: MIC
How it was run: as §3

SMILES | MIC (A. baumannii ATCC 19606) [µg/mL] | MIC [1] [µg/mL] | MIC [2] [µg/mL] | MIC (S. aureus hVISA) [µg/mL] | MIC [3] [µg/mL] | MIC (S. pneumoniae ATCC 6303) [µg/mL] | MIC (S. aureus ATCC 700699) [µg/mL] | MIC [4] [µg/mL] | MIC [5] [µg/mL] | MIC (E. coli armA) [µg/mL] | MIC (E. faecalis VRE [6]) [µg/mL] | MIC (E. faecalis VRE [7]) [µg/mL] | MIC (E. faecalis VRE [8]) [µg/mL] | MIC (S. aureus MRSA) [µg/mL] | MIC (E. faecium Line R & VRE) [µg/mL] | MIC (P. aeruginosa ATCC 27853) [µg/mL] | MIC (P. aeruginosa ΔAmex OprM) [µg/mL] | MIC (E. faecium VRE) [µg/mL]
C=CC[C@@H]1CCO[C@@H]2[C@H](CN[C@@H]2C(=O)N[C@H]([C@H](C)Cl)[C@H]2OC(SC)[C@H](O)[C@H](O)C2O)C1 (stereo partly drawn) [FSA-10-09-045] | 16 (≈ 33.4 µM) | 0.06 (≈ 0.125 µM) | 8 (≈ 16.7 µM) | 8 (≈ 16.7 µM) | 0.06 (≈ 0.125 µM) | 0.06 (≈ 0.125 µM) | 8 (≈ 16.7 µM) | 0.5 (≈ 1.04 µM) | 1 (≈ 2.09 µM) | 8 (≈ 16.7 µM) | 16 (≈ 33.4 µM) | 32 (≈ 66.8 µM) | 8 (≈ 16.7 µM) | 0.06 (≈ 0.125 µM) | 16 (≈ 33.4 µM) | > 128 | 2 (≈ 4.18 µM) | 8 (≈ 16.7 µM)
CCC[C@@H]1CCO[C@@H]2[C@H](CN[C@@H]2C(=O)N[C@H]([C@H](C)Cl)[C@H]2OC(SC)[C@H](O)[C@H](O)C2O)C1 (stereo partly drawn) [FSA-10-09-051] | 8 (≈ 16.6 µM) | 0.06 (≈ 0.125 µM) | 4 (≈ 8.32 µM) | 8 (≈ 16.6 µM) | 0.06 (≈ 0.125 µM) | 0.06 (≈ 0.125 µM) | 4 (≈ 8.32 µM) | 0.25 (≈ 0.52 µM) | 0.5 (≈ 1.04 µM) | 8 (≈ 16.6 µM) | 8 (≈ 16.6 µM) | 8 (≈ 16.6 µM) | 2 (≈ 4.16 µM) | 0.06 (≈ 0.125 µM) | 8 (≈ 16.6 µM) | > 128 | 2 (≈ 4.16 µM) | 4 (≈ 8.32 µM)
